Columns and labels:
[1] = target: T1, human sputum elastase (HS) (Homo sapiens, UniProt P08246); assay: Specificity assay, human sputum elastase; assay type: biochemical; details: 2 hr pre-incubation at RT
T1 construct: purchased Sigma
T1 sequence (P08246 30-267): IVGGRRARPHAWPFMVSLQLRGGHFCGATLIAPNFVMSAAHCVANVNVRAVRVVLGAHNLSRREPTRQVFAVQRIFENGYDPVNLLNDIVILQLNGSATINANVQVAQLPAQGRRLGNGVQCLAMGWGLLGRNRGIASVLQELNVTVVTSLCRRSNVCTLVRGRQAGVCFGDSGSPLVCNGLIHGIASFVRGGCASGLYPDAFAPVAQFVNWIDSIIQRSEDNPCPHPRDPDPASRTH
Description: (§1) The specificities of compounds of the present invention were determined against a variety of serine proteases: human sputum elastase (HS), porcine pancreatic elastase (PPE) and human pancreatic chymotrypsin and one cysteine protease: human liver cathepsin B. In all cases a 96-well plate format protocol using calorimetric p-nitroaniline (pNA) substrate specific for each enzyme was used as described previously (Patent WO 00/09543) with some modifications to the serine protease assays. All enzymes were purchased from Sigma while the substrates were from Bachem.
(§2) Each assay included a 2 hr enzyme-inhibitor pre-incubation at RT followed by addition of substrate and hydrolysis to ˜30% conversion as measured on a Spectramax Pro microplate reader. Compound concentrations varied from 100 to 0.4 μM depending on their potency. […]
(§3) The percentage of inhibition was calculated using the formula: [1-((UVinh−UVblank)/(UVctl−UVblank))]×100 […]

human liver cathepsin B = target: T2, human liver cathepsin B (Homo sapiens, UniProt P07858); assay: Specificity assay, cathepsin B; assay type: biochemical; details: 2 hr pre-incubation at RT
T2 construct: purchased Sigma
Description: as §1, §2, §3

## C=CC1C[C@]1(NC(=O)[C@@H]1C[C@@H](OC(=O)Nc2ccccc2-c2ccccc2)CN1C(=O)[C@@H](NC(=O)OC(C)(C)C)C(C)(C)C)C(=O)NS(=O)(=O)C1CC1 (stereo partly drawn) [Compound 8, BocNH-P3(t-BuGly)-P2(Hyp(O—CO(NH-biphen-2-yl)))-P1(1R,2S VinylAcca)—CONHSO2Cyclopropane]
[1]
  IC50: > 100 µM
Human liver cathepsin B
  IC50: > 100 µM

— patent publication US7041698B2, “Hepatitis C virus inhibitors” (Bristol-Myers Squibb Company, priority 2002, dated 2006)
